The subject of data set [1] is O-GlcNAc modified proteins in rat tissues. Description: Clearance rate: time course of tissue O-GlcNAc levels in rats after tail vein injection. The format is in vivo. The conditions noted are these: 50 mg kg^−1 tail vein. As for the experimental part:
To obtain information for how rapid the inhibitor is cleared from tissues, five 10-week old Sprague-Dawley rats were given a tail vein injection of the inhibitor (50 mg kg^−1). The animals were sacrificed sequentially 3, 7, 24, 27, and 32 hours following the injection. Two additional rats were used as controls. One rat was sacrificed immediately before the others received their injections in order to obtain information about the normal levels of O-GlcNAc modified proteins. Also, one rat was injected with sterilized PBS (pH 7.4) along with the other rats and sacrificed at the end of the experiment (32 hours). Tissue collection, homogenization, and western blot analyses were done in the same matter as described above.

Data set [2] is described as follows: Intravenous glucose tolerance test (IVGTT) in rats. The format is in vivo, rat. The note with it: 50 mg kg^−1 tail vein. As for the experimental part: Eight give-week old healthy Sprague-Dawley rats (Charles River) were caged in pairs. The animals were allowed to acclimatize to their new surroundings at the Simon Fraser University Animal Care Facilities (SFU ACF) for one week. At 3:00 pm, four rats were given a tail vein injection of 400 μl of inhibitor 9c dissolved in PBS buffer (pH 7.4) at a dose of 50 mg kg^−1. The remaining four rats were given a tail vein injection of 400 μl of PBS as a control. All solutions were pre-sterilized through a 0.2 μm filter (Millipore) and injected with 0.5 mL syringes containing a 28 gauge×0.5″ needle (Terumo) as bolus over 10 seconds. Food was withdrawn at approximately 11:00 pm. At 8:30 am the following morning, the rats were given a second injection. After three hours the rats were anesthetized with isoflurane and a 100 μL blood sample was taken from the jugular vein to measure the fasting blood glucose levels. An intravenous glucose tolerance test (IVGTT) was then performed. A 0.5 mL injection of a 50% w/v solution of glucose dissolved in PBS (pre-sterilized) was administered via the tail vein over 30 seconds. At 10, 20, 30, 40, 60, and 90 minutes after the injection of glucose, a 100 μL sample of blood was taken from the jugular vein. […] The soluble cell extract was then analyzed for levels O-GlcNAc modified proteins using Western blot analysis as described above for the cell studies.

The target of data set [3] is human placental β-hexosaminidase. Put plainly: Inhibition of β-hexosaminidase, substrate MU-GlcNAc (5), Dixon plots. The note with it: read-out: β-Hexosaminidase KI; Table 2; substrate 5 at 0.64 mM, pH 4.25, Dixon plots.
Data set [4] has as its target T1, O-GlcNAcase (Homo sapiens, UniProt O60502).
T1 sequence (O60502 1-916): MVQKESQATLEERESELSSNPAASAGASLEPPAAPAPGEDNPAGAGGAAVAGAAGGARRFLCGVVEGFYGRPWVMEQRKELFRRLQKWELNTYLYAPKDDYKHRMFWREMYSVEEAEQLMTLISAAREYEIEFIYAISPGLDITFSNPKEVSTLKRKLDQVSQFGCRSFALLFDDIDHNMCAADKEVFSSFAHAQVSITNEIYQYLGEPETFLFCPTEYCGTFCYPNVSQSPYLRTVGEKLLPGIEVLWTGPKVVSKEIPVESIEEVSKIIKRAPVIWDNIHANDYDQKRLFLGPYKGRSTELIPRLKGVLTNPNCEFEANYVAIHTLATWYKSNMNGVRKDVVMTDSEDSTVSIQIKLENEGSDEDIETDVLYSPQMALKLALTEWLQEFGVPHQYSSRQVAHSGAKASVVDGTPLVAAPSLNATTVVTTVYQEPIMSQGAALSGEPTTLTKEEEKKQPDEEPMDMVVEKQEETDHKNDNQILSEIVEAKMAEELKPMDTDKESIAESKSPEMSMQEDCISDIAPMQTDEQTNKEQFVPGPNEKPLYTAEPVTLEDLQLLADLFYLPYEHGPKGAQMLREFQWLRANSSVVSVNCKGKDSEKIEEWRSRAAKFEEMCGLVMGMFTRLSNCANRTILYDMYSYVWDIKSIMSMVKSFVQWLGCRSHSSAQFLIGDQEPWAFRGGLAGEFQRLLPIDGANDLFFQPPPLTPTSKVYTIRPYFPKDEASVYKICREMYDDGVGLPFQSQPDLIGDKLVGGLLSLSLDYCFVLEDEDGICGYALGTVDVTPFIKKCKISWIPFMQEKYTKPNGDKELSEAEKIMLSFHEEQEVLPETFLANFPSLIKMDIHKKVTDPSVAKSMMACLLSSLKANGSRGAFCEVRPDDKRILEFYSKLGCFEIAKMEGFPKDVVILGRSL

Data set [5] addresses T1, O-GlcNAcase. Description: biochemical.

By pKi is commonly meant the Ki on a negative log10 scale, so that one unit is a factor of ten.

pKi: −log10 of the molar value.

Turning to `CCCC1=N[C@@H]2[C@@H](O)[C@H](O)[C@@H](CO)O[C@@H]2S1` [Compound 9c, 1,2-dideoxy-2′-propyl-α-D-glucopyranoso-[2,1-d]-2′-thiazoline], in data set [1], the “cellular levels of O-GlcNAc modified proteins in brain, 24 hours after injection” value is recorded as “dropped”; the “cellular levels of O-GlcNAc modified proteins in brain, seven hours after injection” value is on record as “remained high”; the “cellular levels of O-GlcNAc modified proteins in brain, three hours after injection” value is on record as “marked increases”. Besides, the “time after which O-GlcNAc levels return to normal levels” value in data set [1] (brain) is “about 32 hours”. For the same compound, in data set [1] (brain and muscle), the “time to elevate O-GlcNAc levels in tissues” value is < 3 h; the “time within which the inhibitor is cleared from the tissues and O-GlcNAc levels return to normal” value was in the range of 24 to 32 h. Further, in data set [2] (Western blot), the “levels of O-GlcNAc modified proteins in rats of the IVGTT” value was “increased levels”. The “glucose clearance rate in IVGTT” value in data set [2] (short term exposure (<24 hours), 1 g kg^−1 glucose challenge) is “does not affect the glucose clearance rate”. In addition, the pKi in data set [3] was 3.47. In data set [4], the “KI for O-GlcNAcase greater than that of parent compound (9a)” value was 3 fold; the “inhibition of O-GlcNAcase, in words” value was “potent inhibitors”; the “selectivity for O-GlcNAcase over β-hexosaminidase, in words” value is listed as “remarkable selectivity”; the “selectivity ratio for O-GlcNAcase over β-hexosaminidase” value was 1500 fold. In data set [4] (Table 2), the “Selectivity Ratio (β-Hex KI/O-GlcNAcase KI)” value is 1500. Also, the pKi in data set [5] was 6.64.

The record behind these values is US20080287375A1, “Selective Glycosidase Inhibitors, Methods of Making Inhibitors, and Uses Thereof” (SIMON FRASER UNIVERSITY, priority 2005, published 2008).
